Assay results reported in patent US8318719B2, “Inhibitors of Bruton's tyrosine kinase” (Roche Palo Alto LLC, priority 2009, dated 2012).

The molecules below were run on B cell receptor-mediated activation of B cells in human blood (assay: Inhibition of B cell activation in whole blood measured by CD69 expression). Conditions: anti-IgM stimulation 20 h, concentration decreasing by 50% the percentage of CD69-positive cells that are also CD20-positive.
Type: cell-based
Description: Inhibition of B Cell Activation in Whole Blood Measured by CD69 Expression
A procedure to test the ability of Btk inhibitors to suppress B cell receptor-mediated activation of B cells in human blood is as follows:
Human whole blood (HWB) is obtained from healthy volunteers, with the following restrictions: 24 hr drug-free, non-smokers. Blood is collected by venipuncture into Vacutainer tubes anticoagulated with sodium heparin. Test compounds are diluted to ten times the desired starting drug concentration in PBS (20×), followed by three-fold serial dilutions in 10% DMSO in PBS to produce a nine point dose-response curve. 5.5 μl of each compound dilution is added in duplicate to a 2 mL 96-well V bottom plate (Analytical Sales and Services, #59623-23); 5.5 μl of 10% DMSO in PBS is added to control and no-stimulus wells. HWB ([…] is added to each well, and after mixing the plates are incubated at 37 C, 5% CO2, 100% humidity for 30 minutes. Goat F(ab′)2 anti-human IgM (Southern Biotech, #2022-14) (10 μl of a 500 μ/mL solution, 50 μg/mL final concentration) is added to each well (except the no-stimulus wells) with mixing and the plates are incubated for an additional 20 hours. At the end of the 20 hour incubation, samples are incubated with florescent-probe-labeled anti-bodies (15 ul PE Mouse anti-Human CD20, BD Pharmingen, #555623, and/or 20 ul APC Mouse anti-Human CD69, BD Pharmingen #555533) for 30 minutes, at 37 C, 5% CO2, 100% humidity. Included are induced control, unstained and single stains for compensation adjustments and initial voltage settings. Samples are then lysed with 1 mL of 1× Pharmingen Lyse Buffer (BD Pharmingen #555899), and plates are centrifuged at 1800 rpm for 5 minutes. Supernatants are removed via suction and the remaining pellets are lysed again with another 1 mL of 1× Pharmingen Lyse Buffer, and plates are spun down as before. Supernatants are aspirated and remaining pellets are washed in FACs buffer (PBS+1% FBS). After a final spin, the supernantants are removed and pellets are resuspended in 180 ul of FACs buffer. Samples are transferred to a 96 well plate suitable to be run on the HTS 96 well system on the BD LSR II flow cytometer. Using appropriate excitation and emission wavelengths for the fluorophores used, data are acquired and percent positive cell values are obtained using Cell Quest Software. Results are initially analyzed by FACS analysis software (Flow Jo). […] The IC50 values are calculated using XLfit software version 3, equation 201.

Row | IC50 | SMILES
1 | 0.018 µM | Cn1cc(-c2cccc(N3CCNc4cc(C(C)(C)C)ccc4C3=O)c2CO)cc(Nc2ccc(C(=O)N3CCOCC3)cn2)c1=O [Compound I-3, 8-tert-Butyl-4-(2-hydroxymethyl-3-{1-methyl-5-[5-(morpholine-4-carbonyl)-pyridin-2-ylamino]-6-oxo-1,6-dihydro-pyridin-3-yl}-phenyl)-1,2,3,4-tetrahydro-benzo[e][1,4]diazepin-5-one]
2 | 0.004 µM | CN1CCN(c2ccc(Nc3cc(-c4cccc(N5CCOc6cc(C(C)(C)C)ccc6C5=O)c4CO)cn(C)c3=O)nc2)CC1 [II-2, 8-tert-Butyl-4-(2-hydroxymethyl-3-{1-methyl-5-[5-(4-methyl-piperazin-1-yl)-pyridin-2-ylamino]-6-oxo-1,6-dihydro-pyridin-3-yl}-phenyl)-3,4-dihydro-2H-benzo[f][1,4]oxazepin-5-one]
3 | 0.016 µM | Cn1cc(-c2cccc(N3CCOc4cc(C(C)(C)C)ccc4C3=O)c2CO)cc(Nc2ccc(C(=O)N3CCOCC3)cn2)c1=O [II-1, 8-tert-Butyl-4-(2-hydroxymethyl-3-{1-methyl-5-[5-(morpholine-4-carbonyl)-pyridin-2-ylamino]-6-oxo-1,6-dihydro-pyridin-3-yl}-phenyl)-3,4-dihydro-2H-benzo[f][1,4]oxazepin-5-one]
4 | 0.038 µM | CN1CCN(c2ccc(Nc3cc(-c4cccc(N5CCNc6cc(C(C)(C)C)ccc6C5=O)c4CO)cn(C)c3=O)nc2)CC1 [Compound I-4, 8-tert-Butyl-4-(2-hydroxymethyl-3-{1-methyl-5-[5-(4-methyl-piperazin-1-yl)-pyridin-2-ylamino]-6-oxo-1,6-dihydro-pyridin-3-yl}-phenyl)-1,2,3,4-tetrahydro-benzo[e][1,4]diazepin-5-one]
5 | 0.096 µM | Cn1cc(-c2cccc(N3CCNc4cc(C5CC5)ccc4C3=O)c2CO)cc(Nc2ccc(N3CCOCC3)cn2)c1=O [Compound I-2, 8-Cyclopropyl-4-{2-hydroxymethyl-3-[1-methyl-5-(5-morpholin-4-yl-pyridin-2-ylamino)-6-oxo-1,6-dihydro-pyridin-3-yl]-phenyl}-1,2,3,4-tetrahydro-benzo[e][1,4]diazepin-5-one]
6 | 0.008 µM | CCN1CCN(c2ccc(Nc3cc(-c4cccc(N5CCOc6cc(C(C)(C)C)ccc6C5=O)c4CO)cn(C)c3=O)nc2)CC1 [II-3, 8-tert-Butyl-4-(3-{5-[5-(4-ethyl-piperazin-1-yl)-pyridin-2-ylamino]-1-methyl-6-oxo-1,6-dihydro-pyridin-3-yl}-2-hydroxymethyl-phenyl)-3,4-dihydro-2H-benzo[f][1,4]oxazepin-5-one]
7 | 0.111 µM | Cn1cc(-c2cccc(N3CCNc4cc(C5CC5)ccc4C3=O)c2CO)cc(Nc2ccc(C(=O)N3CCOCC3)cn2)c1=O [Compound I-1, 8-Cyclopropyl-4-(2-hydroxymethyl-3-{1-methyl-5-[5-(morpholine-4-carbonyl)-pyridin-2-ylamino]-6-oxo-1,6-dihydro-pyridin-3-yl}-phenyl)-1,2,3,4-tetrahydro-benzo[e][1,4]diazepin-5-one]
